Test results taken from ChEMBL document CHEMBL1201862, “PubChem BioAssay data set” (2004).
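Compound exposure: 48 hours, 5 concentrations, 96-well plates. The concentration for 50% growth inhibition is given as GI50.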 The source made the active and inactive calls. Rule as the data show it: active = GI50 up to about 1.1 µM and inactive = higher.

Key:
Assay in all cases: NCI anticancer screen, dose series, 48 h
UO-31 = tested on: UO-31
SNB-75 = tested on: SNB-75
NCI/ADR-RES = tested on: NCI/ADR-RES
Malme-3M = tested on: Malme-3M
T47D = tested on: T47D
CAKI-1 = tested on: CAKI-1
EKVX = tested on: EKVX
A498 = tested on: A498
UACC-257 = tested on: UACC-257
UACC-62 = tested on: UACC-62
SN12C = tested on: SN12C
ACHN = tested on: ACHN
MDA-N = tested on: MDA-N
OVCAR-8 = tested on: OVCAR-8
SF-268 = tested on: SF-268
NCI-H226 = tested on: NCI-H226
786-0 = tested on: 786-0
MDA-MB-435 = tested on: MDA-MB-435
HL-60 = tested on: HL-60

Row | Structure (SMILES) | GI50 (UO-31) | GI50 (SNB-75) | GI50 (NCI/ADR-RES) | GI50 (Malme-3M) | GI50 (T47D) | GI50 (CAKI-1) | GI50 (EKVX) | GI50 (A498) | GI50 (UACC-257) | GI50 (UACC-62) | GI50 (SN12C) | GI50 (ACHN) | GI50 (MDA-N) | GI50 (OVCAR-8) | GI50 (SF-268) | GI50 (NCI-H226) | GI50 (786-0) | GI50 (MDA-MB-435) | GI50 (HL-60)
1 | COC(=O)[C@@](C)(COC(=O)C(C)(C)C)NC(=O)OC(C)(C)C | > 100 µM (inactive) | > 100 µM (inactive) | > 100 µM (inactive) | > 100 µM (inactive) | > 100 µM (inactive) | > 100 µM (inactive) | > 100 µM (inactive) | > 100 µM (inactive) | > 100 µM (inactive) | > 100 µM (inactive) | > 100 µM (inactive) | > 100 µM (inactive) | > 100 µM (inactive) | > 100 µM (inactive) | > 100 µM (inactive) | > 100 µM (inactive) | > 100 µM (inactive) | > 100 µM (inactive) | 
2 | COC(=O)[C@@H]1[C@@H](c2cccc(Cl)c2)[C@H](C(=O)OC)C2(C[C@@]1(C)O)NCCS2 (stereo partly specified) | > 100 µM (inactive) | 35.5 µM (inactive) | 91.6 µM (inactive) | > 100 µM (inactive) | 29.6 µM (inactive) | > 100 µM (inactive) | > 100 µM (inactive) | > 100 µM (inactive) | 87.7 µM (inactive) | 73.5 µM (inactive) | 47.9 µM (inactive) | > 100 µM (inactive) | 86.1 µM (inactive) | 86.5 µM (inactive) | > 100 µM (inactive) | > 100 µM (inactive) | 74.6 µM (inactive) | 52.5 µM (inactive) | 
3 | O=C1NC(=O)C(C(CC(=O)c2ccc([N+](=O)[O-])cc2)c2ccccc2)C(=O)N1 (stereo unspecified) | > 100 µM (inactive) | > 100 µM (inactive) | > 100 µM (inactive) | 0.0334 µM (active) | 20.5 µM (inactive) |  |  | > 100 µM (inactive) | > 100 µM (inactive) | 77.1 µM (inactive) | > 100 µM (inactive) | > 100 µM (inactive) | 27.2 µM (inactive) | > 100 µM (inactive) | 19.9 µM (inactive) | > 100 µM (inactive) | > 100 µM (inactive) | 49.8 µM (inactive) | > 100 µM (inactive)
4 | CC(=O)O[C@H]1C(=O)N(c2cc3c4ccccc4ccc3c3ccccc23)[C@@H]1c1ccccc1 | 11.2 µM (inactive) | 2 µM (inactive) | 4.38 µM (inactive) | 5.38 µM (inactive) | 6.01 µM (inactive) | 4.62 µM (inactive) | 14.6 µM (inactive) | 21.8 µM (inactive) | 4.09 µM (inactive) | 3.15 µM (inactive) | 11 µM (inactive) | 6.38 µM (inactive) | 3.86 µM (inactive) | 3.97 µM (inactive) | 7.24 µM (inactive) | 3.33 µM (inactive) | 3.79 µM (inactive) | 1.61 µM (inactive) | 
5 | CN(C)CCNC1=Nc2ccccc2C(=O)N2CSCC12 (stereo unspecified) | > 100 µM (inactive) | > 100 µM (inactive) | > 100 µM (inactive) | > 100 µM (inactive) | > 100 µM (inactive) | > 100 µM (inactive) | > 100 µM (inactive) | > 100 µM (inactive) | > 100 µM (inactive) | > 100 µM (inactive) | > 100 µM (inactive) | > 100 µM (inactive) | > 100 µM (inactive) | > 100 µM (inactive) | > 100 µM (inactive) | > 100 µM (inactive) | > 100 µM (inactive) | > 100 µM (inactive) | 
6 | NC1CC(=O)c2c1sc(Cl)c2Cl (stereo unspecified) | > 100 µM (inactive) | > 100 µM (inactive) | > 100 µM (inactive) | > 100 µM (inactive) | > 100 µM (inactive) | > 100 µM (inactive) | > 100 µM (inactive) | > 100 µM (inactive) | > 100 µM (inactive) | > 100 µM (inactive) | > 100 µM (inactive) | > 100 µM (inactive) | > 100 µM (inactive) | > 100 µM (inactive) | > 100 µM (inactive) |  | > 100 µM (inactive) | > 100 µM (inactive) | > 100 µM (inactive)
7 | CCOC(=O)CCC(NC(=O)c1ccc(N2CCN(c3c(C)nc(N)nc3N)CC2)cc1)C(=O)OCC (stereo unspecified) | > 100 µM (inactive) | > 37.1 µM (inactive) | 7.43 µM (inactive) | > 100 µM (inactive) | > 88.9 µM (inactive) | 2.52 µM (inactive) | > 78.2 µM (inactive) | 65.2 µM (inactive) | 15.6 µM (inactive) | 0.165 µM (active) | > 22.5 µM (inactive) | 0.122 µM (active) | 12.9 µM (inactive) | 0.452 µM (active) | 0.757 µM (active) | 0.902 µM (active) | 0.0929 µM (active) | 0.251 µM (active) | 
8 | O=C(CC(C(=O)c1ccoc1)c1ccco1)c1ccco1 (stereo unspecified) | 65.9 µM (inactive) | > 100 µM (inactive) | 80.5 µM (inactive) |  | > 100 µM (inactive) | > 100 µM (inactive) | > 100 µM (inactive) | > 100 µM (inactive) | > 100 µM (inactive) | > 100 µM (inactive) | > 100 µM (inactive) | > 100 µM (inactive) | 29.4 µM (inactive) | > 100 µM (inactive) | > 100 µM (inactive) | > 100 µM (inactive) | > 100 µM (inactive) | 30 µM (inactive) | > 100 µM (inactive)
9 | CC[C@H](C)[C@H]1NC(=O)[C@@H](NC(=O)[C@@H](CC(C)C)N(C)C(=O)C2CCCN2C(=O)[C@H](C)O)[C@@H](C)OC(=O)[C@@H]2Cc3ccccc3CN2C(=O)[C@@H]2CCCN2C(=O)[C@H](CC(C)C)NC(=O)[C@@H](C)C(=O)[C@H](C(C)C)OC(=O)C[C@@H]1O (stereo partly specified) |  | 0.121 µM (active) | > 100 µM (inactive) | 0.34 µM (active) | 0.323 µM (active) | 4.92 µM (inactive) | 2.52 µM (inactive) | 0.871 µM (active) | 0.351 µM (active) | 0.106 µM (active) | 0.271 µM (active) | 1.55 µM (inactive) | 0.388 µM (active) | 1.1 µM (active) | 0.327 µM (active) | 1.6 µM (inactive) | 0.368 µM (active) | 0.374 µM (active) | 
10 | NC(CC(O)(c1ccccc1)c1ccccc1)c1ccccc1S (stereo unspecified) | 11.4 µM (inactive) | 15 µM (inactive) | 16.6 µM (inactive) | 25.7 µM (inactive) | 16.8 µM (inactive) |  | 7.94 µM (inactive) | 17.6 µM (inactive) | 18.9 µM (inactive) | 15.5 µM (inactive) | 18.8 µM (inactive) | 13.1 µM (inactive) | 15.6 µM (inactive) | > 10 µM (inactive) | 9.71 µM (inactive) | 15 µM (inactive) | 15.9 µM (inactive) | 14.8 µM (inactive) | 15 µM (inactive)
11 | COC(=O)[C@@H](NC(=O)N(CCC#N)CCCN(C(=O)N[C@H](Cc1ccccc1)C(=O)OC)c1ccccc1)C(C)C | 97.5 µM (inactive) | > 100 µM (inactive) | > 100 µM (inactive) | 28.1 µM (inactive) | 36.8 µM (inactive) | > 100 µM (inactive) | > 100 µM (inactive) | > 100 µM (inactive) | 29.2 µM (inactive) | 33.3 µM (inactive) | > 100 µM (inactive) | 85.5 µM (inactive) | 95.3 µM (inactive) | > 100 µM (inactive) | 84.1 µM (inactive) | > 100 µM (inactive) | > 100 µM (inactive) | 57.1 µM (inactive) | 
